Measured values: patent US9409893B2, “Heteroaryl derivatives and uses thereof” (Jacobus Pharmaceutical Company, Inc., priority 2012, dated 2016)
Marks after values point to notes of the source that are not given here.

Legend:
[1] = tested on: P. falciparum strain D6; assay: [3H]-hypoxanthine growth inhibition assay, P. falciparum D6; assay type: cell-based; conditions: Plasmodium falciparum; P. falciparum D6 (sensitive to chloroquine and pyrimethamine), [3H]-hypoxanthine incorporation; read-out: D6 IC50
Summary of the method: (§1)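 Parasites cultured in human O Rh+ RBCs in RPMI-1640-LPLF (low PABA and folic acid) with 10% human plasma, pH 6.9, 37° C, 5% O2/5% CO2/90% N2. Sorbitol-synchronised ring-stage cultures started at 1% parasitaemia; growth measured as [3H]-hypoxanthine incorporation in hypoxanthine-free medium. Compound stocks 1 mM in DMSO.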

[2] = tested on: Plasmodium berghei (KBG-173 strain); assay: Plasmodium berghei assay in vivo (modified Thompson Test) in CD-1 mice; conditions: bid on days 3, 4 and 5; for Average Days Survival: 31 day experiment
Method: In vivo antimalarial activity was tested in male or female Charles River CD-1 mice that were 4-5 weeks old and weighed 20-25 g They were housed in groups of 3 or 4 in standard plastic cages with wire tops, Bed-o-Cob® bedding, 12 hr/day of light, and maintained at 75° F. They were fed a standard Ralston Purina mouse chow and the cages and bottles were changed twice a week. Test compounds were ground in a mortar and pestle and diluted with enough vehicle to give a volume of 10 mL/kg of mouse weight. The oral doses were prepared in 0.5% hydroxyethylcellulose (Union Carbide Corp. WP 4400)/0.1% Tween-80 (Fisher Scientific T164-500). The amount of drug was calculated on the free base weight. The mice were infected intraperitoneally on day 0 with 5×10^4 erythrocytes parasitized with Plasmodium berghei (KBG-173 strain) from a donor mouse having a parasitemia between 5-10%. On days 3, 4 and 5 the test compounds were administered bid, spaced 6 hr apart, by oral gavage to the mice. Activity was measured by survival, with full activity defined as all animals living at day 31. Partial activity is defined as days of increased survival versus the infected non-treated controls. This in vivo model is a modification of the Thompson Test. For further description see Ager, A. L, Jr. Rodent Malaria Models. In Handbook of Experimental Pharmacology: Antimalarial Drugs. 1. 68/1; Peters, W., Richards, W. H. G., Eds.: Springer-Verlag: Berlin, 1984, pp. 231-33.

[3] = tested on: P. falciparum strain W2; assay: [3H]-hypoxanthine growth inhibition assay, P. falciparum W2; assay type: cell-based; conditions: Plasmodium falciparum; P. falciparum W2 (resistant to chloroquine and pyrimethamine), [3H]-hypoxanthine incorporation; read-out: W2 IC50
Summary of the method: as §1

[4] = Plasmodium berghei, 744 h, 4 mg/kg/day oral, CD-1 mice infected with P. berghei, read-out: Number of mice alive at day 31 (converted)
[5] = Plasmodium berghei, 744 h, 8 mg/kg/day oral, CD-1 mice infected with P. berghei, read-out: Number of mice alive at day 31 (converted)
[6] = Plasmodium berghei, 744 h, 16 mg/kg/day oral, CD-1 mice infected with P. berghei, read-out: Number of mice alive at day 31 (converted)
[7] = Plasmodium berghei, 744 h, 32 mg/kg/day oral, CD-1 mice infected with P. berghei, read-out: Number of mice alive at day 31 (converted)
[8] = Plasmodium berghei, 744 h, 64 mg/kg/day oral, CD-1 mice infected with P. berghei, read-out: Number of mice alive at day 31 (converted)

CC(C)(C)NCc1cc(C(C)(C)C)cc(-c2ccc(C(F)(F)F)nc2)c1O.Cl [Example 1, 4-(tert-Butyl)-2-((tert-butylamino)methyl)-6-(6-(trifluoromethyl)pyridin-3-yl)phenol hydrochloride]
IC50 [1]: 13 nM
Average Days Survival ([2]; 2 mg/kg/day oral): >27 days
Average Days Survival ([2]; 4 mg/kg/day oral): >31* days
Average Days Survival ([2]; 8 mg/kg/day oral): >31* days
Average Days Survival ([2]; 16 mg/kg/day oral): >31* days
Average Days Survival ([2]; 32 mg/kg/day oral): >31* days
Average Days Survival ([2]; 64 mg/kg/day oral): >31* days
responders at 2 mg/kg ([2]; Plasmodium berghei, 744 h, 2 mg/kg/day oral, CD-1 mice infected with P. berghei, read-out: Number of mice alive at day 31 (converted)): 71.4%
responders at 4 mg/kg [2, 4]: 100%
responders at 8 mg/kg [2, 5]: 100%
responders at 16 mg/kg [2, 6]: 100%
responders at 32 mg/kg [2, 7]: 100%
responders at 64 mg/kg [2, 8]: 100%
IC50 [3]: 4 nM

CC(C)(C)NCc1cc(C(C)(C)C)cc(-c2cnc(C(F)(F)F)nc2)c1O.Cl [Example 33, 4-(tert-Butyl)-2-((tert-butylamino)methyl)-6-(2-(trifluoromethyl)pyrimidin-5-yl)phenol hydrochloride]
IC50 [1]: 10 nM
Average Days Survival ([2]; 4 mg/kg/day oral): >30 days
Average Days Survival ([2]; 8 mg/kg/day oral): >31* days
Average Days Survival ([2]; 16 mg/kg/day oral): >31* days
Average Days Survival ([2]; 32 mg/kg/day oral): >31* days
Average Days Survival ([2]; 64 mg/kg/day oral): >31* days
responders at 4 mg/kg [2, 4]: 85.7%
responders at 8 mg/kg [2, 5]: 100%
responders at 16 mg/kg [2, 6]: 100%
responders at 32 mg/kg [2, 7]: 100%
responders at 64 mg/kg [2, 8]: 100%
IC50 [3]: 3 nM

CC(C)(C)NCc1cc(C(C)(C)C)cc(-c2cnc(C(F)(F)F)c(F)c2)c1O.Cl [Example 34, 4-(tert-Butyl)-2-((tert-butylamino)methyl)-6-(5-fluoro-6-(trifluoromethyl)pyridin-3-yl)phenol hydrochloride]
IC50 [1]: 8 nM
Average Days Survival ([2]; 4 mg/kg/day oral): >28 days
Average Days Survival ([2]; 8 mg/kg/day oral): >31* days
Average Days Survival ([2]; 16 mg/kg/day oral): >31* days
Average Days Survival ([2]; 32 mg/kg/day oral): >31* days
Average Days Survival ([2]; 64 mg/kg/day oral): >31* days
responders at 4 mg/kg [2, 4]: 85.7%
responders at 8 mg/kg [2, 5]: 100%
responders at 16 mg/kg [2, 6]: 100%
responders at 32 mg/kg [2, 7]: 100%
responders at 64 mg/kg [2, 8]: 100%
IC50 [3]: 2 nM
